Laboratory results as given in the NIST ThermoML archive (doi:10.1021/acs.jced.5b00348).

Details: for mass density / vapor or sublimation pressure: Liquid; for vapor or sublimation pressure: Closed cell (Static) method; for speed of sound: Gas

FC(F)(F)/C=C/Cl [(E)-1-chloro-3,3,3-trifluoroprop-1-ene]
Details	mass density [kg/m3]	speed of sound [m/s]
215.01 K, 1815.3 kPa	1449.31	–
220 K, 1921.7 kPa	1439.12	–
220 K, 8321.7 kPa	1447.77	–
225 K, 8257.8 kPa	1437.64	–
230 K, 14558 kPa	1436.27	–
235 K, 1363.6 kPa	1406.94	–
235 K, 5155.5 kPa	1412.84	–
235 K, 10102 kPa	1420.19	–
235 K, 15131 kPa	1427.32	–
235 K, 20809 kPa	1434.98	–
240 K, 7088 kPa	1405.56	–
245 K, 12803 kPa	1404.29	–
250 K, 18468 kPa	1403.09	–
255 K, 1176.9 kPa	1363.85	–
255 K, 5115 kPa	1371.16	–
255 K, 10377 kPa	1380.36	–
255 K, 15392 kPa	1388.62	–
255 K, 21124 kPa	1397.53	–
255 K, 24078 kPa	1401.93	–
260 K, 6173.2 kPa	1362.59	–
265 K, 11152 kPa	1361.41	–
270 K, 16100 kPa	1360.29	–
275 K, 1267.3 kPa	1319.85	–
275 K, 4966.8 kPa	1328.13	–
275 K, 10048 kPa	1338.72	–
275 K, 15054 kPa	1348.44	–
275 K, 21020 kPa	1359.23	–
280 K, 5624.6 kPa	1318.7	–
285 K, 9970.2 kPa	1317.63	–
289.99 K, 80.81 kPa	–	137.76
290.01 K, 14296 kPa	1316.62	–
290.06 K, 80.8 kPa	–	137.77
295 K, 1205.6 kPa	1273.49	–
295 K, 5284 kPa	1284.64	–
295 K, 10000 kPa	1296.45	–
295 K, 14695 kPa	1307.26	–
295 K, 18582 kPa	1315.63	–
299.99 K, 4671.2 kPa	1271.6	–
300 K, 4941.7 kPa	1272.36	–
300.01 K, 79.96 kPa	–	140.51
300.01 K, 80 kPa	–	140.52
300.01 K, 113.38 kPa	–	138.9
300.02 K, 113.38 kPa	–	138.9
305 K, 8702.1 kPa	1271.4	–
309.99 K, 12156 kPa	1269.71	–
309.99 K, 12442 kPa	1270.47	–
314.99 K, 8185.4 kPa	1247.49	–
314.99 K, 16168 kPa	1269.57	–
315 K, 1207.6 kPa	1224.52	–
315 K, 4179.3 kPa	1234.82	–
315 K, 11929 kPa	1258.3	–
319.59 K, 129.53 kPa	–	143.66
319.59 K, 183.14 kPa	–	141.46
319.6 K, 129.45 kPa	–	143.67
319.6 K, 150.69 kPa	–	142.81
319.6 K, 150.7 kPa	–	142.81
319.6 K, 183.09 kPa	–	141.46
319.6 K, 183.12 kPa	–	141.46
319.61 K, 68.35 kPa	–	146.03
319.61 K, 129.45 kPa	–	143.67
319.61 K, 215.09 kPa	–	140.12
319.61 K, 215.18 kPa	–	140.11
319.61 K, 215.23 kPa	–	140.11
319.62 K, 68.35 kPa	–	146.03
319.99 K, 4450.8 kPa	1223.61	–
319.99 K, 19560 kPa	1267.92	–
325 K, 7686.4 kPa	1222.74	–
330 K, 10903 kPa	1221.9	–
335.01 K, 948 kPa	1170.3	–
335.01 K, 4081.7 kPa	1184.44	–

Details	vapor or sublimation pressure [kPa]
280.01 K	65.1
290.01 K	96.5
300 K	139
310.01 K	194.9
320.02 K	267.1
330.01 K	357.9
